Active and inactive are the calls of the source. The rule behind the calls is not given here.
Assays:
Assay type in all cases: functional, organism-based
[1] = tested on: Mycobacterium tuberculosis; experiment: Antitubercular activity against Mycobacterium tuberculosis H37Rv harboring mmpL3 V240A mutant at 12.5 uM incubated for 4 weeks by resazurin dye based fluorescence assay
[2] = tested on: Mycobacterium tuberculosis; experiment: Antitubercular activity against Mycobacterium tuberculosis H37Rv harboring ppsB L1476S mutant at 12.5 uM incubated for 4 weeks by resazurin dye based fluorescence assay
[3] = tested on: Mycobacterium tuberculosis; experiment: Antitubercular activity against Mycobacterium tuberculosis H37Rv harboring mmpL3 P239H mutant at 20 uM incubated for 4 weeks by resazurin dye based fluorescence assay
[4] = tested on: Mycobacterium tuberculosis; experiment: Antitubercular activity against Mycobacterium tuberculosis H37Rv harboring lprM V86V mutant at 25 uM incubated for 4 weeks by resazurin dye based fluorescence assay
[5] = tested on: Mycobacterium tuberculosis; experiment: Antitubercular activity against Mycobacterium tuberculosis H37Rv harboring fadD26 (336 amino acids) insertion mutant at 20 uM incubated for 4 weeks by resazurin dye based fluorescence assay

Structure (SMILES) | Activity [1] | Activity [2] | Activity [3] | Activity [4] | Activity [5]
COC1CCN(Cc2cc(-c3ccc(C(C)C)cc3)n(-c3ccc(F)cc3)n2)CC1 | Active | Active |  |  | 
CC(C)c1ccc(-c2cc(CN3CCN(c4ccccn4)CC3)nn2C2CCCCC2)cc1 |  |  | Active | Active | Active

Reference: ChEMBL document CHEMBL4304832, “Novel Pyrazole-Containing Compounds Active against Mycobacterium tuberculosis” (ACS Med Chem Lett, 2019)
